This note sets out measurements from patent US6884589B2, “Model for myeloid cell growth, differentiation and disease” (Regents of the University of California, priority 2000, dated 2005).

What all share (assay type): cell-based, murine
Common to all, as to conditions: 10 μM atRA for 4 days

For one test, the system named is parental ECoM-G cells. Description: atRA treatment of parental ECoM-G cells.
Test [1] concerns PML/RARα ECoM-G derivatives. Description: atRA treatment of ECoM-G clones arrested in differentiation by PML/RARα. The protocol:
(§1) Retroviral infection of ECoM-G cells with heterologous oncoproteins. Helper-free retrovirus was generated for wild-type E2a-Pbx1, Hoxa7, Hoxa9, Nup98/HoxA9, Hoxb8, AML1/ETO, PML/RARα and PLZF/RARα constructs cloned into the multiple cloning site of the MSCVneo and MSCVpac retroviral vectors. ECoM-G cells (250,000) from 3 different clones were transduced by spinoculation (as described above) and selected 5 days in G418 (1 mg/ml) or puromycin (1 μg/ml). The cells were washed and plated in media without estrogen. Only those cells that were capable of continued and indefinite proliferation in the absence of estrogen were expanded to generate RNA for Northern analysis.
Analysis of differentiation arrest induced by heterologous oncoproteins in E2a-Pbx1-ER expressing cells. The ECoM cells provide a system in which to dissect the mechanisms of action of oncogenes. Heterologous oncoproteins were introduced into ECoM-G clones by retroviral infection. Expression was verified by immunoblot assay and cells were assayed for the ability to re-establish differentiation arrest following estrogen withdrawal. AML1/ETO, PML/RARα, Hoxa9, Hoxb8 and wild type E2a-Pbx1 prevented granulocytic differentiation of specific clones permitting their continued and indefinite proliferation in the presence of GM-CSF. […]

Test [2] has as its system PLZF/RARα ECoM-G derivatives. Kind of test: atRA treatment of ECoM-G clones arrested in differentiation by PLZF/RARα. How it is done: as §1
Analysis of differentiation arrest induced by heterologous oncoproteins in E2a-Pbx1-ER expressing cells. The ECoM cells provide a system in which to dissect the mechanisms of action of oncogenes. Heterologous oncoproteins were introduced into ECoM-G clones by retroviral infection.

As to `CC1=C(/C=C/C(C)=C/C=C/C(C)=C/C(=O)O)C(C)(C)CCC1` [atRA, all-trans-RA], the “response to atRA” value with parental ECoM-G cells is “completely unresponsive”. For the same molecule, the “response to atRA (proliferation, differentiation)” value in test [1] is “stopped proliferating and underwent quantitative granulocytic differentiation”; in test [2], “stopped proliferating and underwent quantitative granulocytic differentiation”.
